Laboratory results: US20240165123A1, “USE OF A COMPOUND CONTAINING A TRICYCLIC HETEROARYL GROUP” (CSPC Zhongqi Pharmaceutical Technology (Shijiazhuang) Co., …, priority 2021, published 2024)
Where two headings read alike, the source gives them in different places.

How the values were obtained:
[1] = tested on: MRL/lpr lupus erythematosus model mice; format: in vivo; design: key to Kidney IHC (IgG) pathological score, bilateral kidneys: product score; 0 negative, 1-3 low, 4-8 medium, 9-12 high; conditions: for Area under the urine protein curve: 16 weeks; for Kidney HE pathological score of both kidneys, Activity index / Kidney HE pathological score of both kidneys, Chronicity index / Kidney HE pathological score of both kidneys, Tubulointerstitial lesions / Kidney IHC (IgG) pathological score, bilateral kidneys / Skin HE pathological score / Total kidney weight / Total kidney weight/body weight %: after 17 weeks of treatment; for IL-6 concentration in serum (ELISA) / Spleen weight / Spleen weight/body weight % / TNF-alpha concentration in serum (ELISA) / Total lymph node weight / Total lymph node weight/body weight %: end of the test
Method: • female MRL/lpr mice aged 4 weeks, number: 50; • female C57BL/6 mice aged 4 weeks, number: 10.
According to the concentration of the serum anti-ds-DNA antibody, female MRL/lpr mice were randomly divided into five groups: model group: solvent (aqueous solution containing 0.4% Tween 80 and 0.5% methylcellulose) 10 mL/kg BID, positive control group: prednisone 6 mg/kg QD, compound (I) 20, 40 and 60 mg/kg BID groups, the administration volumes respectively: 10 mL/kg. In addition, female C57BL/6 mice served as the normal control group. The animals in the Compound (I) group and the model group were administrated with the medicament or the solvent by gavage twice a day starting from the beginning of five weeks of age with an interval of 8 hours between two administrations; prednisone was administered to the animals by gavage once a day from the beginning of five weeks of age; the administration was totally performed for 17 weeks.
Two mice in the model group died at 15 and 16 weeks of administration, respectively, and 8 mice remained at the end of the test; one mouse in the compound (I) 20 mg/kg bid group died in the later period of the 16th week of administration, and 9 mice remained at the end of the test; and no death of mice occurred in other groups.
The skin destructions on the face, ears and back of mice were observed and scored once a week for 17 times totally.
Scoring system: 1) red swelling and bleeding of the skin; 2) the extent of hair loss and skin dryness; 3) edema; 4) excoriation/corrosion; 5) lichenoid sclerotic plaque and other symptoms. The score of each item was as follows: normal=0 points; slight=1 point; moderate=2 points; severe=3 points. The severity of skin destruction was determined according to the total score of each evaluated symptom. […]
The lymph nodes of MRL/lpr mice were scored once a week for a total of 17 times during the test.
According to the lymph node diameter (cm), the score values were 0-6 points: • 0 point: normal; • 1 point: small (the diameter at one location of points on both sides was less than 1 cm); • 2 points: small (the diameters at two location of points on both sides were less than 1 cm); • 3 points: small (the diameters at three location of points on both sides were less than 1 cm); • 4 points: large (the diameter at one location of points on both sides was larger than 1 cm, the diameters at the other two location of points on both sides were less than 1 cm); • 5 points: large (the diameters at two location of points on both sides were larger than 1 cm, and the diameter at the other location of points on both sides was less than 1 cm); • 6 points: large (the diameters at three location of points on both sides were greater than 1 cm). […]
Kidney HE scoring criteria: […]
During the test, the concentration of serum anti-ds-DNA antibody of mice were detected every 4 weeks for 16 weeks.
At the end of the test, the serum cytokine levels of mice were detected by ELISA. […] See Table 25 and FIG. 17 for details.

[2] = Effect on central nervous, respiratory and cardiovascular system of animals; format: in vivo
Method: According to the general toxicology study in accordance with the NMPA “Good Laboratory Practice for Non-clinical Laboratory Studies” and FDA GLP specification (21CFR Part 58), and in line with the requirements of International Conference on Harmonization of Technical Requirements for Registration of Pharmaceuticals for Human Use (ICH) and the NMPA relevant guidelines, the toxicology study on Compound (I) was carried out to provide safety data support for the use of Compound (I) in clinical patients. The administration mode and the experimental results were as follows: […]

Compound: NC(=O)c1cnc(Nc2ccc3c(c2)OC[C@H]2CN(S(=O)(=O)C4CC4)CCN32)nc1NC1CC1 [Compound (I), (R)-4-(cyclopropylamino)-2-((3-(cyclopropylsulfonyl)-1,2,3,4,4a,5-hexahydrobenzo[b]pyrazolo[1,2-d][1,4]oxazin-8-yl)amino)pyrimidine-5-arboxamide]
- Area under the urine protein curve ([1]; 20 mg/kg BID): 5646.42 ± 587.29 wk*mg/L
- Kidney HE pathological score of both kidneys, Activity index ([1]; 20 mg/kg BID): 5.20 ± 0.73
- Kidney HE pathological score of both kidneys, Chronicity index ([1]; 20 mg/kg BID): 7.00 ± 0.54
- Kidney HE pathological score of both kidneys, Tubulointerstitial lesions ([1]; 20 mg/kg BID): 13.50 ± 0.52
- Kidney IHC (IgG) pathological score, bilateral kidneys ([1]; 20 mg/kg BID): 8.90 ± 0.72
- Skin HE pathological score ([1]; 20 mg/kg BID): 3.56 ± 0.44
- Total kidney weight ([1]; 20 mg/kg BID): 0.4146 ± 0.02 g
- Total kidney weight/body weight % ([1]; 20 mg/kg BID): 1.1855 ± 0.05%
- IL-6 concentration in serum (ELISA) ([1]; 20 mg/kg BID): 52.38 ± 5.29 pg/mL
- Spleen weight ([1]; 20 mg/kg BID): 0.4658 ± 0.04 g
- Spleen weight/body weight % ([1]; 20 mg/kg BID): 1.3336 ± 0.11 %
- TNF-alpha concentration in serum (ELISA) ([1]; 20 mg/kg BID): 48.03 ± 4.12 pg/mL
- Total lymph node weight ([1]; 20 mg/kg BID): 1.6823 ± 0.24 g
- Total lymph node weight/body weight % ([1]; 20 mg/kg BID): 4.7396 ± 0.60%
- Lymph node score ([1]; 20 mg/kg BID, week 0): 0.0 ± 0.00
- Skin score (skin destruction) ([1]; 20 mg/kg BID, week 0): 0.0 ± 0.00
- Skin score (skin destruction) ([1]; 20 mg/kg BID, week 4): 0.0 ± 0.00
- Lymph node score ([1]; 20 mg/kg BID, week 6): 0.0 ± 0.00
- Lymph node score ([1]; 20 mg/kg BID, week 7): 0.6 ± 0.22
- Skin score (skin destruction) ([1]; 20 mg/kg BID, week 8): 0.0 ± 0.00
- Lymph node score ([1]; 20 mg/kg BID, week 9): 2.0 ± 0.26
- Lymph node score ([1]; 20 mg/kg BID, week 11): 2.8 ± 0.29
- Lymph node score ([1]; 20 mg/kg BID, week 12): 3.0 ± 0.21
- Skin score (skin destruction) ([1]; 20 mg/kg BID, week 12): 0.0 ± 0.00
- Skin score (skin destruction) ([1]; 20 mg/kg BID, week 14): 0.2 ± 0.20
- Skin score (skin destruction) ([1]; 20 mg/kg BID, week 16): 0.2 ± 0.13
- Lymph node score ([1]; 20 mg/kg BID, week 17): 3.6 ± 0.24
- Skin score (skin destruction) ([1]; 20 mg/kg BID, week 17): 0.2 ± 0.15
- Area under the urine protein curve ([1]; 40 mg/kg BID): 3851.50 ± 340.32 wk*mg/L
- Kidney HE pathological score of both kidneys, Activity index ([1]; 40 mg/kg BID): 4.00 ± 0.42
- Kidney HE pathological score of both kidneys, Chronicity index ([1]; 40 mg/kg BID): 7.60 ± 0.50
- Kidney HE pathological score of both kidneys, Tubulointerstitial lesions ([1]; 40 mg/kg BID): 12.30 ± 1.03
- Kidney IHC (IgG) pathological score, bilateral kidneys ([1]; 40 mg/kg BID): 7.40 ± 0.56
- Skin HE pathological score ([1]; 40 mg/kg BID): 3.60 ± 0.37
- Total kidney weight ([1]; 40 mg/kg BID): 0.3704 ± 0.01 g
- Total kidney weight/body weight % ([1]; 40 mg/kg BID): 1.0997 ± 0.05%
- IL-6 concentration in serum (ELISA) ([1]; 40 mg/kg BID): 63.17 ± 12.60 pg/mL
- Spleen weight ([1]; 40 mg/kg BID): 0.3184 ± 0.03 g
- Spleen weight/body weight % ([1]; 40 mg/kg BID): 0.9485 ± 0.09 %
- TNF-alpha concentration in serum (ELISA) ([1]; 40 mg/kg BID): 32.29 ± 4.62 pg/mL
- Total lymph node weight ([1]; 40 mg/kg BID): 0.7319 ± 0.12 g
- Total lymph node weight/body weight % ([1]; 40 mg/kg BID): 2.1603 ± 0.35 %
- Concentration of serum anti-ds-DNA antibody ([1]; 40 mg/kg BID, week 0): 3.32 ± 0.39 µg/mL
- Lymph node score ([1]; 40 mg/kg BID, week 0): 0.0 ± 0.00
- Skin score (skin destruction) ([1]; 40 mg/kg BID, week 0): 0.0 ± 0.00
- Concentration of serum anti-ds-DNA antibody ([1]; 40 mg/kg BID, week 4): 346.06 ± 35.04 µg/mL
- Skin score (skin destruction) ([1]; 40 mg/kg BID, week 4): 0.0 ± 0.00
- Lymph node score ([1]; 40 mg/kg BID, week 6): 0.0 ± 0.00
- Lymph node score ([1]; 40 mg/kg BID, week 7): 0.3 ± 0.15
- Concentration of serum anti-ds-DNA antibody ([1]; 40 mg/kg BID, week 8): 885.04 ± 96.38 µg/mL
- Skin score (skin destruction) ([1]; 40 mg/kg BID, week 8): 0.0 ± 0.00
- Lymph node score ([1]; 40 mg/kg BID, week 9): 0.7 ± 0.26
- Lymph node score ([1]; 40 mg/kg BID, week 11): 0.9 ± 0.23
- Concentration of serum anti-ds-DNA antibody ([1]; 40 mg/kg BID, week 12): 1390.83 ± 266.11 µg/mL
- Lymph node score ([1]; 40 mg/kg BID, week 12): 1.2 ± 0.25
- Skin score (skin destruction) ([1]; 40 mg/kg BID, week 12): 0.0 ± 0.00
- Skin score (skin destruction) ([1]; 40 mg/kg BID, week 14): 0.0 ± 0.00
- Concentration of serum anti-ds-DNA antibody ([1]; 40 mg/kg BID, week 16): 1198.59 ± 86.64 µg/mL
- Skin score (skin destruction) ([1]; 40 mg/kg BID, week 16): 0.0 ± 0.00
- Lymph node score ([1]; 40 mg/kg BID, week 17): 1.5 ± 0.34
- Skin score (skin destruction) ([1]; 40 mg/kg BID, week 17): 0.0 ± 0.00
- Area under the urine protein curve ([1]; 60 mg/kg BID): 4138.70 ± 1048.57 wk*mg/L
- Kidney HE pathological score of both kidneys, Activity index ([1]; 60 mg/kg BID): 3.90 ± 0.75
- Kidney HE pathological score of both kidneys, Chronicity index ([1]; 60 mg/kg BID): 6.00 ± 0.75
- Kidney HE pathological score of both kidneys, Tubulointerstitial lesions ([1]; 60 mg/kg BID): 8.50 ± 0.91
- Kidney IHC (IgG) pathological score, bilateral kidneys ([1]; 60 mg/kg BID): 6.90 ± 0.28
- Skin HE pathological score ([1]; 60 mg/kg BID): 2.60 ± 0.37
- Total kidney weight ([1]; 60 mg/kg BID): 0.3639 ± 0.02 g
- Total kidney weight/body weight % ([1]; 60 mg/kg BID): 1.1424 ± 0.07%
- IL-6 concentration in serum (ELISA) ([1]; 60 mg/kg BID): 35.99 ± 7.36 pg/mL
- Spleen weight ([1]; 60 mg/kg BID): 0.2805 ± 0.03 g
- Spleen weight/body weight % ([1]; 60 mg/kg BID): 0.8892 ± 0.10 %
- TNF-alpha concentration in serum (ELISA) ([1]; 60 mg/kg BID): 30.61 ± 4.72 pg/mL
- Total lymph node weight ([1]; 60 mg/kg BID): 0.5680 ± 0.08 g
- Total lymph node weight/body weight % ([1]; 60 mg/kg BID): 1.7879 ± 0.26 %
- Concentration of serum anti-ds-DNA antibody ([1]; 60 mg/kg BID, week 0): 3.33 ± 0.42 µg/mL
- Lymph node score ([1]; 60 mg/kg BID, week 0): 0.0 ± 0.00
- Skin score (skin destruction) ([1]; 60 mg/kg BID, week 0): 0.0 ± 0.00
- Concentration of serum anti-ds-DNA antibody ([1]; 60 mg/kg BID, week 4): 249.26 ± 24.12 µg/mL
- Skin score (skin destruction) ([1]; 60 mg/kg BID, week 4): 0.0 ± 0.00
- Lymph node score ([1]; 60 mg/kg BID, week 6): 0.0 ± 0.00
- Lymph node score ([1]; 60 mg/kg BID, week 7): 0.1 ± 0.10
- Concentration of serum anti-ds-DNA antibody ([1]; 60 mg/kg BID, week 8): 806.75 ± 110.22 µg/mL
- Skin score (skin destruction) ([1]; 60 mg/kg BID, week 8): 0.0 ± 0.00
- Lymph node score ([1]; 60 mg/kg BID, week 9): 0.3 ± 0.15
- Lymph node score ([1]; 60 mg/kg BID, week 11): 0.4 ± 0.16
- Concentration of serum anti-ds-DNA antibody ([1]; 60 mg/kg BID, week 12): 1168.19 ± 113.75 µg/mL
- Lymph node score ([1]; 60 mg/kg BID, week 12): 0.5 ± 0.22
- Skin score (skin destruction) ([1]; 60 mg/kg BID, week 12): 0.0 ± 0.00
- Skin score (skin destruction) ([1]; 60 mg/kg BID, week 14): 0.0 ± 0.00
- Concentration of serum anti-ds-DNA antibody ([1]; 60 mg/kg BID, week 16): 1272.27 ± 50.19 µg/mL
- Skin score (skin destruction) ([1]; 60 mg/kg BID, week 16): 0.0 ± 0.00
- Lymph node score ([1]; 60 mg/kg BID, week 17): 1.0 ± 0.26
- Skin score (skin destruction) ([1]; 60 mg/kg BID, week 17): 0.0 ± 0.00
- Mice died during the test ([1]; mouse, in vivo): one
- Effect on the central nervous system, respiratory system and cardiovascular system [2]: no effect
